Measurements reported in patent US20050053611A1, “Pharmaceutical kit comprising anti-human seminal plasma protein single chain antibody/human carboxypeptidase fusion protein and prodrug” (priority 2001, published 2005).

Columns and labels:
[1] = tested on: PC cells (PC-3 and PC-3m); type: cell-based; conditions: MTT, 48 h; for lethal / cytotoxic effect to PC cells: lethal curves
Method: 1) MTT assay: PC-3 and PC-3m cells were seeded separately to a 96-well plate at 1×10^4 cells/ml/well. MTX, MTX-α-Phe, MTX-α-Phe+CP-A, MTX-α-Phe+fusion proteins and MTX-α-Arg, MTX-α-Arg+fusion proteins at different concentrations were also added into those wells. 3 parallel wells were set for each concentration. The cells were incubated in a CO2 incubator for 48 h. 20 μl of a solution of thiazole blue in PBS (5 mg/ml) was added to each well and incubated at 37° C. for 4 h. The culture medium and free thiazole blue were discarded and 0.1 ml of dimethylsulfoxide was added to each well. The absorbance at 405 nm was measured and mortality rate was calculated.

[2] = tested on: PC cells (PC-3 and PC-3m); assay: colony formation assay (soft agar culture); type: cell-based, human; conditions: 2 weeks
Method: 2) Colony formation assay. The colony formation assay was performed using soft agar culture method. 9 different groups were included in the assay: {circle over (1)}MTX+PC cell, {circle over (2)}MTX-α-Phe+PC cell, {circle over (3)}fusion protein+PC cell, {circle over (4)}MTX-α-Phe+CP-A+PC cell, {circle over (5)}MTX-α-Phe+fusion protein+PC cell, {circle over (6)}MTX-α-Arg+PC cell, {circle over (7)}MTX-α-Arg+CP-A+PC cell, {circle over (8)}MTX-α-Arg+fusion protein+PC cell and {circle over (9)}control group (PC cell only). All the tested prodrugs were used in three different concentrations, i.e. each of MTX, MTX-α-Phe and MTX-α-Arg was used at 0.4, 4, and 40 μg/ml. CP-A was used in a volume of 10 μl (2.5 mU/μl) and fusion protein was used in a volume of 10 μl (1 mg/ml). The density of PC cell was 200/well. The plate was incubated in a CO2 incubator at 37° C. for 2 weeks. After incubation, PC cells were fixed by a mixture of acetic acid and ethanol (1:3) for 2 h. Then microscopy was employed to calculate the percentage of colony formation.

[3] = tested on: PC cells (PC-3 and PC-3m); assay: cell cycle kinetic analysis by flow cytometry; type: cell-based, human
Method: 3) Kinetic effects of the fusion protein/prodrug on the growth cycle of PC cells: PC-3 and PC-3m cells were added to several 10 ml culture flasks (10^6/ml). MTX, MTX-α-Arg, MTX-α-Phe+CP-A, MTX-α-Phe+fusion protein at different concentrations were added to the flasks, respectively. The cells were collected at 6 h, 16 h and 24 h after the addition of the tested drugs and washed twice with cold saline and then fixed with 950 ml/L ethanol. The cells were stained by routine DNA staining method. Flow cytometry was employed in the kinetic analysis (FACS Profile II; Laser rate: 15 mW; Green light filter: 488 nm).

PC-3m tumor = conditions: for histopathologic examination of tumors: after 5 weeks of treatment; for average survival time / lifespan: from beginning of treatment till natural death
Method: Tumor Model: BALB/C nude mice aged 4-6 weeks and weight at 16-20 g were provided by the Experimental Animal Center of the Fourth Military Medical University (Xi'an, China) and bred in a sterile isolator. They were derma-inoculated with 0.1 ml of PC-3m suspension (1×10^7 cells). The drugs were administrated when the volume of tumor was approximately 0.5 cm^3.
1) Groups and treatments. 56 nude mice carrying tumors were randomized into 7 groups: {circle over (1)}Control group, intravenously administered with 0.5 ml of saline; {circle over (2)}Treatment Group I, intravenously administered with MTX (5 mg/kg); {circle over (3)}Treatment Group II, intravenously administered with MTX-α-Phe (5.32 mg/kg) {circle over (4)}Treatment Group III, intravenously administered with 0.5 ml of anti-γ-SmMcAb-CP-A; {circle over (5)}Treatment Group IV, intravenously administered with 0.5 ml of the fusion protein; {circle over (6)}Treatment Group V, intravenously administered with 0.5 ml of γ-SmMcAb-CP-A first and MTX-α-Phe (5.32 mg/kg) 72 h later (ADEPT-1); {circle over (7)}Treatment Group VI, intravenously administered with 0.5 ml of the fusion protein first and MTX-α-Phe (5.32 mg/kg) 72 h later (ADEPT-2).
Tumor-inhibition rate: The major diameter and minor diameter of the tumor were measured every week after the administration of drugs. The mass of tumor (m=½×major diameter×minor diameter^2) and tumor-inhibition rate (TIR) was thus calculated according the following formula. [formula]
Cell cycle of tumor cells is calculated by the formula: tc=[lg(1+G)/lg(m2/m1)]×t (G: a component of the tumor growth group; m2, m1: tumor mass of a given component of the group observed at different time points; t: interval between observations).
Survival time of the nude mice refers to the period from the beginning of the treatment till natural death.
Histopathologic observation includes gross specimen examination and microscopic examination. Samples of tumor and organs were fixed with 100 ml/L formalin. Pathologic section was stained […] underwent microscopy observation.

## CN(Cc1cnc2nc(N)nc(N)c2n1)c1ccc(C(=O)N[C@@H](CCC(=O)O)C(=O)N[C@@H](Cc2ccccc2)C(=O)O)cc1 [MTX-α-Phe, methotrexate-α-phenylalanine]
[1]
  lethal / cytotoxic effect to PC cells: no lethal effect
[1]; PC cells, read-out: IC50 of the prodrug
  IC50: 72 mM
[2]
  colony-formation rate: 88%
[3]
  kinetic change of cell cycle: did not show any significant kinetic change
PC-3m tumor; P>0.05
  tumor size compared with control: small compared with that of the control but the difference was not significant
PC-3m tumor
  histopathologic examination of tumors: characteristics typical of adenocarcinoma
  average survival time / lifespan: 31 ± 12.2 days
PC-3m tumor; mouse, in vivo
  tumor cell growth cycle: 1.7±0.2

## CN(Cc1cnc2nc(N)nc(N)c2n1)c1ccc(C(=O)N[C@@H](CCC(=O)O)C(=O)O)cc1 [MTX, Methotrexate]
[2]; P<0.001
  colony formation: none of these groups had any colony formed
[3]
  cell proliferation index: decreased significantly
PC-3m tumor
  histopathologic examination of tumors: a large area of necrosis in the tumors
  average survival time / lifespan: 67 ± 13.8 days
PC-3m tumor; by the 6th week
  volume of tumors: significantly smaller than that in other groups
PC-3m tumor; from the 2nd week on
  growth of tumors: decreased
PC-3m tumor; mouse, in vivo
  living quality of mice: poor living quality
  tumor cell growth cycle: 2.5±0.2
  whole blood count: significantly lower than that of the ADEPT groups

## CN(Cc1cnc2nc(N)nc(N)c2n1)c1ccc(C(=O)NC(CCC(=O)O)C(=O)NC(CCCNC(=N)N)C(=O)O)cc1 (stereo not drawn) [MTX-α-Arg]
[1]
  lethal / cytotoxic effect to PC cells: no lethal effect
[2]
  colony-formation rate: 91%
